From US9873724B2, “Pro-angiogenic peptides and peptide conjugates” (Yissum Research Development Company of the Hebrew …, priority 2013, dated 2018)
“And” between values parts separate entries of the source, which are not always exact repeats. Equal entries are not always repeated. Square brackets hold non-standard residues; d marks the D form. Ends that are not written are not given here. * marks the point of attachment. fluorescein = fluorescein moiety coupled to a lysine residue (K-Flu); Tyr(3,5-I2) = N[C@@H](Cc1cc(I)c(O)c(I)c1)C(=O)O; Phe(4-Br) = N[C@@H](Cc1ccc(Br)cc1)C(=O)O; hArg = N=C(N)NCCCC[C@H](N)C(=O)O; Myristoyl = CCCCCCCCCCCCCC(=O)*; Lauroyl = CCCCCCCCCCCC(=O)*; Decanoyl = CCCCCCCCCC(=O)*; Nle = CCCC[C@H](N)C(=O)O; Octanoyl = CCCCCCCC(=O)*; Hexanoyl = CCCCCC(=O)*

What was measured:
[1] = tested on: mouse aortic rings; assay: Aortic ring assay ex-vivo (capillary sprouting from mouse aortic rings in collagen; repeated with VEGF); type: cell-based; design: Capillary length 10 μM (10 μM) / Capillary length 20 μM / Capillary length 10 μM: unit not given here; settings: for Capillary length 10 μM (10 μM) / Capillary length 10 μM: peptide 10 μM; for Capillary length 10 μM (10 μM) / Capillary length 20 μM / Capillary length 10 μM: rings fixed after two weeks; for Capillary length 20 μM: peptide 20 μM; for Average capillary length / Fold vs vehicle: 10 μM peptide, alone or together with VEGF; for Fold vs vehicle: capillary length; for effect of peptide together with VEGF (in words): 10 μM peptide with VEGF; for capillary / vessel formation (in words): aortic ring assay, FIGS. 1A-1C and 2A-2C
Description: Thoracic aortas were dissected from 7- to 8-week-old male SABRA mice. The aortas were immediately transferred to Petri dishes containing BIO-MPM-1. The adventitia and small vessels around the aorta were carefully removed under a dissecting microscope, and transverse cuts of 0.75 mm were made. The resulting aortic rings were extensively rinsed and incubated overnight in BIO-MPM-1 containing penicillin-streptomycin. Subsequently, the rings were embedded in 50 μl collagen mix (7 parts collagen, 1 part 10× Eagle minimal essential medium, MEM, and 2 parts 0.15 M sodium bicarbonate) in 96-well plates (Nunc, Rochester, N.Y.). Solidification of the collagen solution was achieved by raising the pH to neutral and the temperature to 37° C. 150 μl BIO-MPM-1 containing penicillin-streptomycin and the tested factors or peptides) was added to the embedded rings, and the plates were incubated at 37° C. in a humidified 10% CO2 atmosphere. Medium containing factors and/or peptides was refreshed at days 4 and 8. After two weeks, the rings were fixed with 4% formaldehyde for 24 hours, followed by staining with crystal violet (0.02%) dissolved in ethanol and extensive washing to remove excessive stain. The effect of factors and peptides was examined in 4 wells (4 rings of mouse aortic rings) per assay. Micrographs of representative rings were taken using a digital camera (Nikon, Tokyo, Japan). Morphometric analysis of sprouting was performed manually using Image-Pro 4.5 software (Media Cybernetics, Silver Spring, Md.) according to Nissanov et al. (Lab Invest. 1995; 73:734-739). Nonstained rings were subjected to paraffin sections and hematoxylin and eosin (H&E) staining.
FIGS. 1A-1C represents aortic ring capillary length and FIGS. 2A-2C aortic ring capillary width. In the table: K-Flu is a Lysine residue coupled with a fluorescein moiety, 4BrPhe is 4-bromo-Phenylalanine, Dod is Dodecanoyl, Dec designates Decanoyl, Oct is Octanoyl, and Hex is Hexanoyl.
The aortic ring assay was repeated in the presence of 10 μM concentration of peptides AB-033 (SEQ ID NO: 13) and AB-034 (SEQ ID NO: 14) together with the pro-angiogenetic protein VEGF.

[2] = tested on: Mice/Balb/c, hind limb ischemia model; assay: Mouse hind limb ischemia/angiogenesis model; type: in vivo; settings: 20 mg/kg IP twice weekly
From the text: The object of this study was to determine whether administration of the test items, peptides AB-017 (SEQ ID NO: 12) and 725-106 (positive control, SEQ ID NO: 2) can enhance angiogenesis, subsequently inducing clinical and motor function improvement in a hind limb ischemia model. The principle of the test is based on changes in perfusion rate, clinical signs and histological parameters (necrosis) following administration of the test compounds.
Each tested group included 4-7 mice per group. Intraperitoneal (i.p) injection is the preferred route of administration of the test items in this model and DMSO/PEG is used as vehicle to prepare the test item solution.
Tested peptides were dissolved in 100% DMSO. Thereafter Polyethylene glycol (PEG) 400 is added to the solution. Sterile water was used to dilute to a final concentration of 0.5% DMSO/10% PEG 400/H2O to result 2 mg/ml. The solution is prepared and divided into marked aliquots and stored at −70° C.
Species/Strain: Mice/Balb/c male˜8 weeks
Animals were housed under standard laboratory conditions, air conditioned and filtered (HEPA F6/6) with adequate fresh air supply (31 air changes/hour). Animals were kept in a climate controlled environment. Temperatures range is between 20-24° C. and RH is between 30-70% with 12 hours light and 12 hours dark cycle. Animals were housed in polyethylene cages (7/cage) measuring 35×30×15 cm, with stainless steel top grill facilitating pelleted food and drinking water in plastic bottle; bedding: steam sterilized clean paddy husk. Bedding material is changed along with the cage at least twice a week. Diet: Animals are fed ad libitum a commercial rodent diet (Teklad Certified Global 18% Protein Diet cat #: 106S8216). Animals have free access to drinking water obtained from the municipality supply. Surgical Procedure: Anesthesia: Isoflurane 1.5-3% in a mixture of O2/N2O, under spontaneous respiration. All four limbs of the animal were taped down in order to facilitate the animal for surgery. Both hind legs of the animals are shaved and disinfected. On the operated leg, the right leg in all animals, an incision was made from the inguinal area to the proximity of the knee. The femoral vein/artery/nerve were exposed. The artery is dissected free from the vein, nerve and surrounding fascia. Distal to its bifurcation with the profound femoral artery, using 6-0 silk suture the artery is ligated twice, and thereafter transected between these two points (see prox-A-group model appendix I). The surgical wound is closed with 6-0 silk and the mouse is returned to its cage. The left leg is untreated control in all animals. Exclusion criteria: Only mice, whose mean flux measurement post surgery is […] and ≦50% of the pre surgical measurement, are incorporated into the study. Mice whose mean flux measurement post surgery out of this range were excluded from the study.
[formula] Drug administration: All animals were dosed by IP administration at a dose volume of 10 ml/kg.
Tests and Evaluation: Body weight: Body weights were measured prior to surgery, prior to each dosing, and prior to necropsy. Blood flow measurement: Using a Laser Doppler apparatus (Perimed PeriScan PIM II System, Technical manual available at test facility) Blood flow was measured (operated leg & control leg) while the legs are in their natural resting position at the following time points: Before surgery (after shaving) & Post surgery (Day 0); Day 1; Day 8; Day 15; Day 22; and Day 29. Each time point for each mouse consists of three measurements. Blood flow was measured, additionally, in first 10 animals at Pre before shaving. […]

Substance | Capillary length 10 μM (10 μM) [1] | Capillary length 20 μM [1] | Capillary length 10 μM [1] | also measured
AB-011: Table 2: Myr-Gly, Nle, Arg, Pro, Tyr, Asn, Ala, K-Flu (lysine coupled with fluorescein), NH2 (Myristoyl-G[Nle]RPYNAK(fluorescein)-NH2) | 2500 | 5000 |  | 
AB-015: Table 2: Acetyl-Gly-, Arg, Pro, Tyr, NH2 (Ac-GRPY-NH2) | 1,000 | 1,700 |  | 
Myr-Gly-Arg-Pro-Tyr-NH2 (Myristoyl-GRPY-NH2; SMILES CCCCCCCCCCCCCC(=O)NCC(=O)N[C@@H](CCCNC(=N)N)C(=O)N1CCC[C@H]1C(=O)N[C@@H](Cc1ccc(O)cc1)C(N)=O) [AB-016] | 8,700 | 14,500 |  | 
AB-023: Table 2: Hex-Gly (Hexanoyl), Nle, Arg, Pro, Tyr (Hexanoyl-G[Nle]RPY) | 430 | 320 | 1,700 | 
AB-022: Table 2: Oct-Gly (Octanoyl), Nle, Arg, Pro, Tyr (Octanoyl-G[Nle]RPY) | 380 | 1,700 | 2,170 | 
AB-021: Table 2: Dec-Gly (Decanoyl), Nle, Arg, Pro, Tyr (Decanoyl-G[Nle]RPY) | 590 | 3,200 | 3,940 | 
VEGF |  |  |  | Average capillary length [1]: 3221; Fold vs vehicle [1]: 2.4
Myr-Gly-Nle-Arg-Pro-35dITyr-NH2 (Myristoyl-G[Nle]RP[Tyr(3,5-I2)]-NH2; SMILES CCCCCCCCCCCCCC(=O)NCC(=O)N[C@@H](CCCC)C(=O)N[C@@H](CCCNC(=N)N)C(=O)N1CCC[C@H]1C(=O)N[C@@H](Cc1cc(I)c(O)c(I)c1)C(N)=O) [AB-033] | 3,570 | 3,800 |  | effect of peptide together with VEGF (in words) [1]: synergistic effect; Average capillary length [1]: 4941; capillary / vessel formation (in words) [1]: induce massive capillary formation; Fold vs vehicle [1]: 3.6
AB-020: Table 2: Dod-Gly (Dodecanoyl), Nle, Arg, Pro, Tyr (Lauroyl-G[Nle]RPY) | 1,900 | 2,700 | 5,600 | 
Myr-Gly-Nle-hArg-Pro-Tyr-NH2 (Myristoyl-G[Nle][hArg]PY-NH2; SMILES CCCCCCCCCCCCCC(=O)NCC(=O)N[C@@H](CCCC)C(=O)N[C@@H](CCCCNC(=N)N)C(=O)N1CCC[C@H]1C(=O)N[C@@H](Cc1ccc(O)cc1)C(N)=O) [AB-034] | 9,570 | 10,780 | 9,700 | effect of peptide together with VEGF (in words) [1]: synergistic effect; Average capillary length [1]: 3062; capillary / vessel formation (in words) [1]: induce massive capillary formation; Fold vs vehicle [1]: 2.2
AB-031: Table 2: Myr-Gly, Nle, Arg, Pro, 4BrPhe (Myristoyl-G[Nle]RP[Phe(4-Br)]) |  |  | 1,840 | 
AB-013: Table 2: Myr-Gly, Nle, Arg, Pro, Tyr, Asn, DAla, NH2 (Myristoyl-G[Nle]RPYN[dA]-NH2; SMILES CCCCCCCCCCCCCC(=O)NCC(=O)N[C@@H](CCCC)C(=O)N[C@@H](CCCNC(=N)N)C(=O)N1CCC[C@H]1C(=O)N[C@@H](Cc1ccc(O)cc1)C(=O)N[C@@H](CC(N)=O)C(=O)N[C@H](C)C(N)=O) | 8700 | 900 |  | 
AB-018: Table 2: Myr-Gly, Nle, Arg, Pro, Tyr, Asn, NH2 (Myristoyl-G[Nle]RPYN-NH2; SMILES CCCCCCCCCCCCCC(=O)NCC(=O)N[C@@H](CCCC)C(=O)N[C@@H](CCCNC(=N)N)C(=O)N1CCC[C@H]1C(=O)N[C@@H](Cc1ccc(O)cc1)C(=O)N[C@@H](CC(N)=O)C(N)=O) | 12,600 | 10,200 |  | 
725-106: Previously disclosed EDG3 peptide, positive control; Table 2: Myr-Gly, Nle, Arg, Pro, Tyr, Asn, Ala, NH2 (Myristoyl-G[Nle]RPYNA-NH2; SMILES CCCCCCCCCCCCCC(=O)NCC(=O)N[C@@H](CCCC)C(=O)N[C@@H](CCCNC(=N)N)C(=O)N1CCC[C@H]1C(=O)N[C@@H](Cc1ccc(O)cc1)C(=O)N[C@@H](CC(N)=O)C(=O)N[C@@H](C)C(N)=O) [Peptide 725-106, reference compound] | 7,000 | 4,600 |  | Functional evaluation at day 15 (individual mouse) ([2]; function score 0 (flexing the toes) to 3 (dragging of foot), one value per mouse): 3.0; Hind limb ischemia evaluation at day 15, Average ([2]; group average of ischemic score): 2.4; Hind limb ischemia evaluation at day 15 (individual mouse) ([2]; ischemic score 0 (absence of necrosis) to 4 (total hind-limb loss), one value per mouse, listed as 106): 2.0 (2×) and 3.0 and 2.5
